The values that follow are results of earlier work, collected in patent US11033512B2, “Transdermal therapeutic system containing asenapine and silicone acrylic hybrid polymer” (LTS LOHMANN Therapie-Systeme AG, priority 2017, dated 2021).

Bounds are passed on as bounds.

As usually defined, the bioavailability is the share of a dose that reaches the circulation, judged against a reference dose that is usually intravenous.

Series [1] concerns the target serotonin 5-HT2A receptors (Homo sapiens, UniProt P28223).

serotonin 5-HT2A receptors, sequence (P28223 whole entry): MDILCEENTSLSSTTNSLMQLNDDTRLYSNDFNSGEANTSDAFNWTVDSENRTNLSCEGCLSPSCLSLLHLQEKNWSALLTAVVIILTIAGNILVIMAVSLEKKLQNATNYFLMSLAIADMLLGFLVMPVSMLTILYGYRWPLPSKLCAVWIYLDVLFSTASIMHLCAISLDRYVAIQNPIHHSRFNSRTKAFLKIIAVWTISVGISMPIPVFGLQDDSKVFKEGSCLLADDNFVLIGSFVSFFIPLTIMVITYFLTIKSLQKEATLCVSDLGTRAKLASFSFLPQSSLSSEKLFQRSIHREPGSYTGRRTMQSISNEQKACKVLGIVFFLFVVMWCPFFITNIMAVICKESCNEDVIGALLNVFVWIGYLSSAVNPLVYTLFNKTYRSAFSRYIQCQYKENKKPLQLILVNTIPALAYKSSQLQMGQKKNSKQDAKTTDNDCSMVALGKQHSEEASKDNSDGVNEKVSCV

Turning to `CN1C[C@H]2c3ccccc3Oc3ccc(Cl)cc3[C@@H]2C1` (relative stereo) [asenapine, (3aRS,12bRS)-rel-5-chloro-2,3,3a,12b-tetrahydro-2-methyl-1H-dibenz[2,3:6,7]oxepino[4,5-c]pyrrole], the affinity entry in series [1] is “high affinity”. Also, for the setting “following sublingual administration”, the “time of peak blood plasma concentrations” value is 0.5 to 1.5 h. The terminal disposition half-life (following sublingual administration, therapeutic doses) is at least 24 h. The bioavailability (if ingested) is on record as below 2%.
